Molecules are shown by their SMILES.

For the test, the target named is T1, serotonin 1A receptors ([^3H]8-OH-DPAT binding, hippocampus membrane preparation) (Rattus norvegicus, UniProt P19327).
T1 construct: 146 μl of the hippocampus membrane preparation (80 μg/tube in terms of protein); from tissue; host or cells: rat hippocampus membrane preparation
T1 sequence (P19327 1-422): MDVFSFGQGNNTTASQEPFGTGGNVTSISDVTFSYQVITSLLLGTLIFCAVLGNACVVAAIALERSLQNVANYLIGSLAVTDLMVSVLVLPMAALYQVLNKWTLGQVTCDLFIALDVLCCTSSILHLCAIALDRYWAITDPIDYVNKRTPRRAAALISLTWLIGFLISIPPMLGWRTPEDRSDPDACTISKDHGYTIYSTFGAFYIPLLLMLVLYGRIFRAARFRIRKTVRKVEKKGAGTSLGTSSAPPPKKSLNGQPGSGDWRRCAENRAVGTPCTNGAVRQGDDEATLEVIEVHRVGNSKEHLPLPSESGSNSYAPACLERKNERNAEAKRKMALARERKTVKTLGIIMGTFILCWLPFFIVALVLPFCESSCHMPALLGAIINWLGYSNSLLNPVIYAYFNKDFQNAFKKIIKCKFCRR
The experiment in a line: [^3H]8-OH-DPAT binding test (Test Example 2). As to conditions: [^3H]8-OH-DPAT 2 nM, test concentration not given. On the procedure: [^3H]8-OH-DPAT Binding Test
The test was carried out according to the method^2 of Hall M. D. et al. After about one week of pre-breeding, a male rat was decapitated and the brain was immediately removed. The hippocampus was dissected from the brain on ice, and 50 mM Tris-HCl (pH=7.4) was added to the hippocampus in an amount of 40 times the wet weight of the hippocampus, followed by homogenization (3 min, 1 stroke/min) in an ice bath by the use of a Teflon-glass homogenizer. Then, the homogenate was centrifuged (4° C.) at 40,000×g for 10 minutes. The resulting precipitate was dispersed in an ice-cooled buffer solution (50 mM Tris-HCl (pH=7.4)) by the use of Hiscotron™, followed by centrifugation (4° C.) at 40,000×g for 10 minutes. Moreover, the resulting precipitate was re-suspended and the washing procedure was repeated once. The precipitate thus obtained was dispersed in an ice-cooled buffer solution (50 mM Tris-HCl (pH=7.4)) by the use of Hiscotron™, and the resulting dispersion was incubated at 37° C. for 1 hour and then centrifuged (4° C.) at 40,000×g for 10 minutes. Furthermore, the resulting precipitate was re-suspended and the washing procedure was repeated once. The membrane preparation thus obtained was suspended in the same buffer solution as described above, and then subjected to cryopreservation at −80° C.
Measurement was carried out by using a liquid for reaction (total volume: 200 μl) obtained by adding 50 μl of [^3H]8-OH-DPAT (final concentration: 2 nM), 4 μl of a solution of a test drug and 146 μl of the hippocampus membrane preparation (80 μg/tube in terms of protein) to a buffer solution containing 50 mM Tris-HCl (pH=7.4) and 4 mM CaCl2. After the liquid for reaction was allowed to react at room temperature for 30 minutes, it was immediately filtered by suction at a low pressure through glass fiber filter. The glass fiber filter was washed twice with 250 μl of a buffer solution and then added to a glass vial containing 4 ml of ACS-II (Amersham), and the radioactivity bound to receptors and remaining on the filter was measured with a liquid scintillation counter. Non-specific binding of [^3H]8-OH-DPAT was defined as the amount of [^3H]8-OH-DPAT bound in the presence of 1 μM 8-OH-DPAT.
Rate of binding inhibition was calculated by the following equation:
Rate of binding inhibition (%)=100−100×{[amount of [^3H]8-OH-DPAT bound in the presence of test substance]−[amount of [^3H]8-OH-DPAT bound in the presence of 1 μM 8-OH-DPAT]/[amount of [^3H]8-OH-DPAT bound in the absence of test substance]−[amount of [^3H]8-OH-DPAT bound in the presence of 1 μM 8-OH-DPAT]}
As to `COc1ccc(Br)c(CC2CCN(CC3CNc4ccccc4C3)CC2)c1.Cl.Cl` (stereo not shown) [Example 70, 3-((4-(2-Bromo-5-methoxybenzyl)piperidin-1-yl)methyl)-1,2,3,4-tetrahydroquinoline Dihydrochloride], the “Rate of inhibition of [^3H]8-OH-DPAT binding (%)” value (shortened to “Rate of inhibition … (%)”) is given as 86%.

Consider `COc1ccc(Br)c(CC2CCN(CC[C@H]3CC[C@@H](CCO)CC3)CC2)c1.Cl` [Example 64, cis-2-(4-(2-(4-(2-Bromo-5-methoxybenzyl)-piperidin-1-yl)ethyl)cyclohexyl)ethanol Hydrochloride], for which the “Rate of inhibition … (%)” value was 96%.

As for `CC(C)Oc1ccc(Br)c(CC2CCN(CC3CCc4ccccc4N3)CC2)c1.Cl.Cl` (stereo not shown) [Example 65, 2-((4-(2-Bromo-5-isopropoxybenzyl)piperidin-1-yl)methyl)-1,2,3,4-tetrahydroquinoline Dihydrochloride], the “Rate of inhibition … (%)” value turned out to be 60%.

Turning to `CO[C@H]1CC[C@H](CCN2CCC(Cc3cc(OC(C)C)ccc3Br)CC2)CC1.Cl` [Example 44, trans-4-(2-Bromo-5-isopropoxybenzyl)-1-(2-(4-methoxycyclohexyl)ethyl)piperidine Hydrochloride], the “Rate of inhibition … (%)” value came out at 92%.

In the case of `CCN(CCOC)[C@H]1CC[C@H](CCN2CCC(Cc3cc(OC)ccc3Br)CC2)CC1.Cl.Cl` [Example 58, trans-N-(4-(2-(4-(2-bromo-5-methoxybenzyl)-piperidin-1-yl)ethyl)cyclohexyl)-N-ethyl-N-(2-methoxyethyl)amine Dihydrochloride], the “Rate of inhibition … (%)” value is 92%.

Regarding `COc1ccc(Br)c(CC2CCN(CC[C@H]3CC[C@H](NS(=O)(=O)N(C)C)CC3)CC2)c1.Cl` [Example 47, trans-N′-(4-(2-(4-(2-bromo-5-methoxybenzyl)-piperidin-1-yl)ethyl)cyclohexyl)-N,N-dimethylsulfamide hydrochloride], the “Rate of inhibition … (%)” value is on record as 95%.

On to `CCN[C@H]1CC[C@H](CCN2CCC(Cc3cc(OC)ccc3Br)CC2)CC1.Cl.Cl` [Example 38, trans-N-(4-(2-(4-(2-bromo-5-methoxybenzyl)-piperidin-1-yl)ethyl)cyclohexyl)-N-ethylamine Dihydrochloride], for which the “Rate of inhibition … (%)” value stood at 96%.

`CCN([C@H]1CC[C@H](CCCN2CCC(Cc3cc(OC(C)C)ccc3Br)CC2)CC1)S(C)(=O)=O.Cl` [Example 46, trans-N-(4-(3-(4-(2-bromo-5-isopropoxy-benzyl)piperidin-1-yl)propyl)cyclohexyl)-N-ethylmethanesulfonamide Hydrochloride]: the “Rate of inhibition … (%)” value stood at 65%.

Take `CCN(CC)[C@H]1CC[C@@H](CCCN2CCC(Cc3cc(OC)ccc3Br)CC2)CC1.Cl.Cl` [Example 54, cis-N-(4-(3-(4-(2-bromo-5-methoxybenzyl)-piperidin-1-yl)propyl)cyclohexyl)-N,N-diethylamine Dihydrochloride]: the “Rate of inhibition … (%)” value amounted to 99%.

`COc1ccc(Br)c(CC2CCN(CC[C@H]3CC[C@H](NC(=O)C(F)(F)F)CC3)CC2)c1.Cl` [Example 48, trans-N-(4-(2-(4-(2-bromo-5-methoxybenzyl)-piperidin-1-yl)ethyl)cyclohexyl)-2,2,2-trifluoro-acetamide Hydrochloride]: the “Rate of inhibition … (%)” value is 90%.

For `Cl.Cl.Clc1ccc(Br)c(CC2CCN(CC3CCc4ccccc4N3)CC2)c1` (stereo not shown) [Example 67, 2-((4-(2-Bromo-5-chlorobenzyl)piperidin-1-yl)methyl)-1,2,3,4-tetrahydroquinoline Dihydrochloride], the “Rate of inhibition … (%)” value turned out to be 73%.

`COc1ccc(Br)c(CC2CCN(CCC3CCN(CCO)CC3)CC2)c1.Cl.Cl` [Example 6, 2-(4-(2-(4-(2-Bromo-5-methoxybenzyl)-1-piperidinyl)ethyl)-1-piperidinyl)ethanol Dihydrochloride]: the “Rate of inhibition … (%)” value amounted to 71%.

With `COc1ccc(Br)c(CC2CCN(CC3CCc4ccccc4N3)CC2)c1.Cl.Cl` (stereo not shown) [Example 69, 2-((4-(2-Bromo-5-methoxybenzyl)piperidin-1-yl)methyl)-1,2,3,4-tetrahydroquinoline Dihydrochloride], the “Rate of inhibition … (%)” value is given as 96%.

For the origin of these results see patent US20050065140A1, “Serotonine reuptake inhibitor” (priority 2001, published 2005).
